Columns and labels:
human MRGPRX2 [1] = molecular target: T1, human MRGPRX2 (Homo sapiens, UniProt Q96LB1); assay: Calcium mobilization (Fluo-4 AM) in MRGPRX2 expressing Chem-1 cells; format: cell-based; parameters: host or cells: Chem-1 cells (G418-selected); details: for inhibition of the activation of the MRGPRX2 receptor caused by bevemipretide: MRGPRX2 expressing cells with 100 μM of bevemipretide, FIGS. 7A and 7B; for activation of the MRGPRX2 expressing cells (calcium response): MRGPRX2 expressing Chem-1 cells, FIG. 5A, FIG. 6
T1 sequence (Q96LB1 1-330): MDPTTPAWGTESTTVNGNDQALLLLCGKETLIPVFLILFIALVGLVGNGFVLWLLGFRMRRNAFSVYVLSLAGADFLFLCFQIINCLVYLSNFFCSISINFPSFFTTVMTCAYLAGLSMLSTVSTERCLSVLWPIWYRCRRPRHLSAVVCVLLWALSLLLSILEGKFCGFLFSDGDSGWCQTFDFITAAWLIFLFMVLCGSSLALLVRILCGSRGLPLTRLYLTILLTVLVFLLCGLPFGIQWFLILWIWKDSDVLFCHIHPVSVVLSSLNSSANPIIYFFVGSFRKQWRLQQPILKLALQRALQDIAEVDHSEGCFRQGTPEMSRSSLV
Protocol: (§1) MRGPRX2 expressing and control (non-MRGPRX2 expressing) Chem-1 cells lines were obtained from Discovery Services, EuroFins. Cells were cultured in Dulbecco's Modified Eagle Medium (DMEM) high glucose medium (4.5 g/L) with 10% fetal bovine serum (FBS), non-essential amino acids, and N-2-hydroxyethylpiperazine-N′-2-ethanesulfonic acid (HEPES) buffer (pH 7.0-7.6). Geneticin (G418) was used for selection of MRGPRX2-expressing Chem-1 cells. Cells were maintained at 37° C. at 5% CO2. Cells were seeded to a glass bottom 96-well plates at a density of 50,000 per well (Cellvis). Cells were loaded with Fluo-4 AM for 30 minutes at 37° C. at a concentration of 2.5 μM. Cells were washed once with Dulbecco's phosphate buffered saline (DPBS). Cells were rested at room temperature for 30 minutes before use and washed with DPBS. Cells were resuspended in 50 μL phosphate buffered saline (PBS) with calcium and magnesium. To stimulate cells, 50 μL of 2× drug (bevemipretide or leuprolide) or DPBS as a control. Plates were read immediately with a Biotek plate reader. Readings were taken every 6 seconds for 2 minutes.
(§2) This assay was designed as a calcium-based readout of receptor activity.

[2] = test system: control (non-MRGPRX2 expressing) Chem-1 cells; assay: Calcium mobilization (Fluo-4 AM) in control Chem-1 cells lacking the MRGPRX2 receptor; format: cell-based, human; details: parent Chem-1 cells lacking MRGPRX2; FIG. 5B
Protocol: as §1, §2

[3] = Phase 1 human clinical trial, subcutaneous administration; format: in vivo; details: phase 1, subcutaneous administration
[4] = Long term toxicology studies in rats, subcutaneous administration; format: in vivo
[5] = Long term toxicology studies of non-human primates; format: in vivo
human MRGPRX2 [6] = molecular target: T1, human MRGPRX2; assay: Fluo-4 calcium assay in HEK293 cells stably expressing human MRGPRX2 and Galpha15 (fluorescent plate reader); format: cell-based; parameters: expressed in transfected cells; host or cells: clonal HEK293 cell line; details: calcium response, multiple runs, FIG. 4
Protocol: A clonal HEK293 cell line stably expressing human MRGPRX2 and Galpha15 was used for the assay, which was performed using a fluorescent plate reader. Cells were plated at 40,000 cells per well in a glass-bottom 96 well plate 20 hours before the assay. Cells were loaded with N-[4-[6-[(Acetyloxy)methoxy]-2,7-difluoro-3-oxo-3H-xanthen-9-yl]-2-[2-[2-[bis[2-[(acetyloxy)methoxy]-2-oxoethyl]amino]-5-methylphenoxy]ethoxy]phenyl]-N-[2-[(acetyloxy)methoxy]-2-oxoethyl]glycine (acetyloxy)methyl ester (Fluo-4 AM) for 45 minutes at 37°° C. and allowed to rest for 30 minutes before use. Baseline fluorescence was calculated as the average of a 30 second read, with data points taken at 5 second intervals. Response was defined as the maximum signal within 90 seconds after addition of bevemipretide, subtracted by the baseline fluorescence signal. Concentrations were tested in duplicate and the assay was run 6 times. The curve was calculated as a four-parameter non-linear fit with variable slope. Traces were obtained using the same cell line and same Fluo-4 AM loading protocol but were imaged using a fluorescence microscope using a standard fluorescein isothiocyanate (FITC) filter. Fluorescence for different cells was calculated using region of interest selections.

SMILES | inhibition of the activation of the MRGPRX2 receptor caused by bevemipretide (human MRGPRX2 [1]) | activation of the MRGPRX2 expressing cells (calcium response) (human MRGPRX2 [1]) | effect on cells lacking the MRGPRX2 receptor (calcium response) [2] | further results
O=c1c(O)c(-c2ccc(O)c(O)c2)oc2cc(O)cc(O)c12 [quercetin, 3,3′,4′,5,7-pentahydroxyflavone] | in a dose-dependent manner, inhibit the activation |  |  | 
CCNC(=O)[C@@H]1CCCN1C(=O)[C@H](CCCNC(=N)N)NC(=O)[C@H](CC(C)C)NC(=O)[C@@H](CC(C)C)NC(=O)[C@H](Cc1ccc(O)cc1)NC(=O)[C@H](CO)NC(=O)[C@H](Cc1c[nH]c2ccccc12)NC(=O)[C@H](Cc1c[nH]cn1)NC(=O)[C@@H]1CCC(=O)N1 [leuprolide] |  | dose dependent activation |  | 
Cc1cc(O)cc(C)c1C[C@H](NC(=O)[C@H](N)CCCNC(=N)N)C(=O)N[C@@H](CCCCN)c1nc(Cc2ccccc2)no1 [bevemipretide] |  | dose dependent activation | no effect | injection site reactions [3]: injection site reactions were observed as an adverse event; injection site reactions [4]: injection site reactions were observed from subcutaneous administration; some being severe at the higher dose levels administered; injection site reactions [5]: generally not severe even at the highest dosages tested; EC50 (human MRGPRX2 [6]): 43.8 to 54.1 µM
C[C@@H]1C[C@H]2[C@@H]3CCC4=CC(=O)C=C[C@]4(C)[C@@]3(Cl)[C@@H](O)C[C@]2(C)[C@@]1(O)C(=O)CCl [monetasone, mometasone] | in a dose-dependent manner, inhibit the activation |  |  | 
C[C@H](CCC(=O)O)C[C@H](C)C[C@H](C)C(=O)/C=C(\O)[C@H](C)C[C@H](C)C/C=C/[C@@H](C)[C@@H](O)[C@@H](C)[C@@H](O)C[C@@H]1CC[C@@](C)([C@H]2CC[C@@](C)([C@@H](C)O)O2)O1 [Ionomycin, reference compound] |  | generates a calcium response | generates a calcium response | 
